The text below walks through data of ChEMBL document CHEMBL4014274, “Oligothiophene compounds inhibit the membrane fusion between H5N1 avian influenza virus and the endosome of host cell” (Eur J Med Chem, 2017).

Data set [1] in a line: Inhibition of Influenza A virus (A/Thailand/Kan353/2004(H5N1)) hemagglutinin expressed in human 293T cells coexpressing NA assessed as reduction in HA mediated viral membrane fusion with MDCK cells pretreated for 30 mins with virus followed by infection in MDCK cells measured after 48 hrs by luciferase reporter gene assay. The format is cell-based. On the technique in general: Reporter assays use an easily measured gene product as a stand-in for the process of interest.

Data set [2] in a line: Cytotoxicity against MDCK cells after 2 days by MTT assay. The data set is classed as cell-based, Canis lupus familiaris. The settings on record: dog. In general terms: Tetrazolium assays rely on reduction of a dye to a coloured formazan, in cell work by metabolically active cells.
Data set [3] in a line: Inhibition of Influenza A virus (A/Puerto Rico/8/34(H1N1)) neuraminidase activity infected in MDCK cells assessed as reduction in progeny production using 2-(4-Methylumbelliferyl)-a-D-N-acetylneuraminic acid sodium salt as substrate pretreated for 1 hr with virus followed by 1 hr infection in MDCK cells measured after 48 hrs by fluorescence assay. The data set is classed as cell-based, Influenza A virus (A/Puerto Rico/8/1934(H1N1)).

The subject of data set [4] is Influenza A virus (A/Thailand/Kan353/2004(H5N1)). Nature of the data set: Potency index, ratio of CL-385319 IC50 to compound IC50 for inhibition of Influenza A virus (A/Thailand/Kan353/2004(H5N1)) hemagglutinin expressed in human 293T cells coexpressing NA assessed as reduction in HA mediated viral membrane fusion with MDCK cells. The format is cell-based.
The mark [5] stands for this setting: Influenza A virus, read-out: IC50.

Consider `[N-]=[N+]=NCCCCc1ccc(-c2ccc(-c3ccc(-c4ccc(CCCCN=[N+]=[N-])s4)s3)s2)s1`, for which the 50% inhibitory concentration (IC50) (as a rule, the concentration needed to halve the response being measured) in data set [1] is on record as “Not Active”.
Regarding `NCCCc1ccc(-c2ccc(-c3ccc(CCCN)s3)s2)s1`, in data set [2], the CC50 (as a rule, the concentration at which the toxic effect on the cells reaches its halfway point) at 48 h is greater than 200 µM. Also, the IC50 in data set [1] (setting [5]) stood at 4.15 µM.
On to `O=C(NCCCc1ccc(-c2ccc(CCCNC(=O)c3ccccc3Cl)s2)s1)c1ccccc1Cl`, for which the IC50 result in data set [1] was “Not Active”.
Turning to `NCCCc1ccc(-c2ccc(CCCN)s2)s1`, the 50% inhibitory concentration (IC50) result in data set [1] is “Not Active”.
Take `NCCCCc1ccc(-c2ccc(-c3ccc(CCCCN)s3)s2)s1`: the IC50 in data set [3] stood at 3.29 µM; in data set [1] (setting [5]), 0.037 µM. The molecule also came in with a CC50 at 48 h in data set [2] of 13 µM.
The molecule `O=C(NCCCc1ccc(-c2cccs2)s1)c1cc(F)cc(C(F)(F)F)c1` yielded a CC50 at 48 h in data set [2] of 46.7 µM. In addition, the IC50 in data set [1] (setting [5]) amounted to 42.1 µM.
In the case of `BrCCCc1ccc(-c2ccc(-c3ccc(CCCBr)s3)s2)s1`, the CC50 at 48 h in data set [2] was greater than 200 µM. Besides, the IC50 in data set [1] (setting [5]) turned out to be 6.64 µM.
In data set [2], `[N-]=[N+]=NCCCc1ccc(-c2ccc(-c3cccs3)s2)s1` had a half-maximal cytotoxic concentration (CC50) at 48 h greater than 200 µM. Besides, the IC50 in data set [1] (setting [5]) was 23 µM.
In data set [2], `O=C(NCC(c1cccs1)N1CCCC1)c1cc(F)cc(C(F)(F)F)c1` (stereo not drawn) gave a CC50 at 48 h of 239 µM. The IC50 in data set [1] (setting [5]) was 6.41 µM.
On to `NCCCCc1ccc(-c2cccs2)s1`, for which the IC50 result in data set [1] is “Not Active”.
Molecule `BrCCCCc1ccc(-c2ccc(-c3ccc(CCCCBr)s3)s2)s1` showed a CC50 at 48 h in data set [2] greater than 200 µM. The IC50 in data set [1] (setting [5]) was 0.696 µM.
For `[N-]=[N+]=NCCCc1ccc(-c2ccc(-c3ccc(-c4cccs4)s3)s2)s1`, in data set [2], the cytotoxic concentration (CC50) at 48 h was greater than 100 µM. Also, in data set [1] (setting [5]), the IC50 amounted to 46.1 µM.
Consider `O=C(NCCCc1ccc(-c2ccc(CCCNC(=O)c3cc(O)cc(O)c3)s2)s1)c1cc(O)cc(O)c1`, for which, in data set [1], the IC50 entry is recorded as “Not Active”.
`NCCCCc1ccc(-c2ccc(CCCCN)s2)s1` registered a CC50 at 48 h in data set [2] of 26.5 µM. Also, the concentration for half-maximal inhibition (IC50) in data set [1] (setting [5]) amounted to 0.0819 µM.
As for `O=C(NCCc1cccs1)c1cc(F)cc(C(F)(F)F)c1`, the IC50 in data set [1] (setting [5]) came out at 0.22 µM.
For `O=C(NCCCCc1ccc(-c2ccc(CCCCNC(=O)c3cc(F)cc(C(F)(F)F)c3)s2)s1)c1cc(F)cc(C(F)(F)F)c1`, the IC50 entry in data set [1] is “Not Active”.
Molecule `[N-]=[N+]=NCCCCc1ccc(-c2ccc(-c3cccs3)s2)s1` came in with a CC50 at 48 h in data set [2] greater than 200 µM. The IC50 in data set [1] (setting [5]) was 11.1 µM.
As for `BrCCCCc1ccc(-c2ccc(-c3ccc(-c4cccs4)s3)s2)s1`, in data set [1], the IC50 result is “Not Active”.
For `O=C(NCCCc1ccc(-c2ccc(-c3cccs3)s2)s1)c1cc(F)cc(C(F)(F)F)c1`, the IC50 entry in data set [1] was “Not Active”.
The same measure, in the same setting: in the case of `NCCCCc1ccc(-c2ccc(-c3ccc(-c4ccc(CCCCN)s4)s3)s2)s1` it was “Not Active”; in that of `O=C(NCCCc1ccc(-c2ccc(CCCNC(=O)c3cc(F)cc(C(F)(F)F)c3)s2)s1)c1cc(F)cc(C(F)(F)F)c1`, “Not Active”.
In data set [2], `BrCCCc1ccc(-c2ccc(-c3ccc(-c4cccs4)s3)s2)s1` returned a cytotoxic concentration (CC50) at 48 h greater than 200 µM. Besides, the IC50 in data set [1] (setting [5]) is 74.1 µM.
As to `O=C(NCCCCc1ccc(-c2ccc(-c3cccs3)s2)s1)c1cc(F)cc(C(F)(F)F)c1`, the IC50 entry in data set [1] is “Not Active”.
Take `BrCCCc1ccc(-c2ccc(-c3cccs3)s2)s1`: the CC50 at 48 h in data set [2] amounted to 35.3 µM. The IC50 in data set [1] (setting [5]) was found to be 12.5 µM.
In data set [2], `O=C(NCCCCc1cccs1)c1cc(F)cc(C(F)(F)F)c1` came in with a CC50 at 48 h of 43.5 µM. In data set [1] (setting [5]), the IC50 turned out to be 4.73 µM.
For `O=C(NCCCCc1ccc(CCCCNC(=O)c2cc(F)cc(C(F)(F)F)c2)s1)c1cc(F)cc(C(F)(F)F)c1`, the IC50 result in data set [1] is “Not Active”.
In the case of `O=C(NCCCc1cccs1)c1cc(F)cc(C(F)(F)F)c1`, half-maximal cytotoxicity in data set [2] (CC50 at 48 h) was put at 40.2 µM. Further, the IC50 in data set [1] (setting [5]) came to 7.24 µM.
As to `NCCCCc1ccc(-c2ccc(-c3ccc(-c4cccs4)s3)s2)s1`, the IC50 result in data set [1] is recorded as “Not Active”.
Same read-out and setting: in the case of `BrCCCCc1ccc(-c2ccc(-c3ccc(-c4ccc(CCCCBr)s4)s3)s2)s1` it was “Not Active”; in that of `[N-]=[N+]=NCCCCc1ccc(-c2ccc(-c3ccc(CCCCN=[N+]=[N-])s3)s2)s1`, “Not Active”.
For `O=C(NCCN1CCCCC1)c1cc(F)cc(C(F)(F)F)c1`, the IC50 in data set [3] worked out at 72 µM; in data set [1] (setting [5]), 10.6 µM. This molecule also displayed a 50% cytotoxic concentration (CC50) at 48 h in data set [2] of 1370 µM.
`[N-]=[N+]=NCCCCc1ccc(-c2ccc(-c3ccc(-c4cccs4)s3)s2)s1`: in data set [1], the IC50 entry is on record as “Not Active”.
`BrCCCCc1ccc(-c2ccc(-c3cccs3)s2)s1` returned a CC50 at 48 h in data set [2] of 23.8 µM. In data set [1] (setting [5]), the IC50 was 11.4 µM.
In the case of `NCCCc1ccc(-c2ccc(-c3ccc(-c4cccs4)s3)s2)s1`, the half-maximal inhibitory concentration (IC50) in data set [3] worked out at 0.768 µM; in data set [1] (setting [5]), 0.171 µM. The same molecule displayed a CC50 at 48 h in data set [2] greater than 200 µM.
For the molecule `NCCCCc1ccc(CCCCN)s1`, the 50% inhibitory concentration (IC50) result in data set [1] is on record as “Not Active”.
Regarding `NCCCCc1ccc(-c2ccc(-c3cccs3)s2)s1`, the figures for the IC50 in data set [3] and in data set [1] (setting [5]) were 1.24 µM and 0.029 µM, respectively. The Ratio IC50 in data set [4] was 1000. The CC50 at 48 h in data set [2] turned out to be 13.3 µM.
With `O=C(NCCCCc1ccc(-c2ccc(-c3ccc(CCCCNC(=O)c4cc(F)cc(C(F)(F)F)c4)s3)s2)s1)c1cc(F)cc(C(F)(F)F)c1`, the half-maximal inhibitory concentration (IC50) result in data set [1] is on record as “Not Active”.
Take `BrCCCc1ccc(-c2ccc(CCCBr)s2)s1`: in data set [1], the IC50 result is reported as “Not Active”.
Consider `O=C(NCCCc1ccc(-c2ccc(-c3ccc(CCCNC(=O)c4cc(F)cc(C(F)(F)F)c4)s3)s2)s1)c1cc(F)cc(C(F)(F)F)c1`, for which the IC50 entry in data set [1] is recorded as “Not Active”.
Regarding `NCCCc1ccc(-c2ccc(-c3cccs3)s2)s1`, the IC50 amounted to 1.12 µM in data set [3] and 2.88 µM in data set [1] (setting [5]). Besides, in data set [2], the CC50 at 48 h came out at 18.9 µM.
In data set [2], `O=C(NCCCCc1ccc(-c2cccs2)s1)c1cc(F)cc(C(F)(F)F)c1` registered a 50% cytotoxic concentration (CC50) at 48 h of 27.4 µM. The IC50 in data set [1] (setting [5]) worked out at 19.8 µM.
On to `BrCCCCc1ccc(CCCCBr)s1`, for which the IC50 result in data set [1] is recorded as “Not Active”.
